Experiments:
Human Fibroblasts = assay: Cell growth by Lowry protein determination after 80 hours in zinc-supplemented culture medium (non-transformed control cells); format: cell-based; settings: about 1.6 mg/l to about 4.0 mg/l of Zn⁺⁺
From the text: (§1) In the example, malignant transformed human cell lines obtained from the American Type Culture Collection, i.e., a human epithelial cervix carcinoma cell line, HeLa (ATCC No. CCL-2), a human adenocarcinoma carcinoma cell line of the colon, HT-29 (ATCC No. HTB-38) and a human adenocarcinoma carcinoma cell line of the breast, SK-BR-3 (ATCC No. HTB-30) were used. Non-transformed dipolid human fibroblast cells (MRC-5, ATCC No. CCL-171) were employed as a control. The cell lines were obtained from the American Type Culture Collection in a frozen condition. In order to reactivate the cells, the cells were subcultured in McCoy 5A (mod.) medium (Serva Company) containing 15% (v/v) fetal calf serum.
The reactivated cells were allowed to reach the logarithmic growth phase and then detrypsinized and harvested. […] The correct cell concentration was determined using a Neubeuer-Turk count chamber in which the viability of the cells was also determined by means of Trypan blue coloring (see: Freshney, I.R., Culture of Animal Cells, Alan Riss Publ. Co., New York, N.Y. (1983)). […]
(§2) The growth value as a percent of the Control was determined according to the following formula: [formula]
(§3) In addition, in the Table, the mean adsorption values are determinative of the concentration of protein in the cells and were evaluated at 660 nm.

HTB-38 = assay: Cell growth by Lowry protein determination after 80 hours in zinc-supplemented culture medium; format: cell-based, human; settings: for decrease in protein yield: compared to Cell Culture Medium No. 1, 4800 min
From the text: as §1
(§4) The reactivated cells were allowed to reach the logarithmic growth phase and then detrypsinized and harvested. The harvested cells were washed twice with McCoy 5A (mod.) medium containing 15% (v/v) fetal calf serum and then resuspended in the same medium at a concentration of 10⁶ cells per ml. The correct cell concentration was determined using a Neubeuer-Turk count chamber in which the viability of the cells was also determined by means of Trypan blue coloring (see: Freshney, I.R., Culture of Animal Cells, Alan Riss Publ. Co., New York, N.Y. (1983)).
(§5) To tubes containing 200,000 HTB-30 cells or 200,000 HTB-38 cells or 200,000 CCL-2 cells was added Cell Culture Medium Nos. 1, 2, 3, 4, 5, 6, 7, 8 or 9 described below and the cells were incubated for 80 hours. In addition, to tubes containing 200,000 human fibroblast cells (MRC-5) were added Cell Culture Medium Nos. 1, 2, 3, 4, 5, 6, 7, 8 or 9 described below and the cells were incubated for 80 hours. All of the cells were incubated at 36.5°C (± 0.5°C), 5% CO₂ and 95% air. Five duplicate tubes were employed for each cell culture medium for each cell.
(§6) After the end of the incubation time, the culture medium was removed and the cells were washed three times with Dulbecco buffer solution (see: Dulbecco, R.U., Vogt, M., J. Exp. Med. 98:167-182 (1954)). Next, the cells were dried and octyl phenol polyethylene glycol ether was added at a concentration of 0.2% (v/v) to each tube to which 20 µl of 1.0 N NaOH had been additionally added per ml.
(§7) After thorough mixing and allowing the samples to stand for 30 minutes at 20-25°C, 200 µl each of the resulting cell extracts were used for protein determinations according to the Lowry method (see: Lowry, O.H. et al., J. Biol. Chem. 193:265 (1951)).
(§8) The Control in the Table below refers to Cell Culture Medium No. 1 at 4°C to which no cells had been added. […] All growth values are mean values from the five duplicate tubes ± the standard deviation.
as §2, §3

CCL-2 = assay: as above; format: cell-based, human; settings: CCL-2, about 1.6 mg/l to about 4.0 mg/l of Zn⁺⁺
From the text: as §1, §4, §5, §6, §7, §8, §2, §3

HTB-30 = assay: as above; format: cell-based, human; settings: HTB-30, about 1.6 mg/l to about 4.0 mg/l of Zn⁺⁺
From the text: as §1, §4, §5, §6, §7, §8, §2, §3

## [Cl-].[Cl-].[Zn+2] [bivalent zinc, ZnCl₂]
Human Fibroblasts
  growth rate, expressed as protein concentration: not inhibited
HTB-38; HTB-38, 3.5 mg/l of Zn⁺⁺ (maximum growth suppression)
  decrease in protein yield: 41.8%
HTB-38; HTB-38, about 1.6 mg/l to about 4.0 mg/l of Zn⁺⁺
  growth rate, expressed as protein concentration: inhibited
HTB-38; HTB-38, about 2.1 mg/l of Zn⁺⁺
  decrease in protein yield: 24.8%
CCL-2
  growth rate, expressed as protein concentration: inhibited
HTB-30
  growth rate, expressed as protein concentration: inhibited
